Reference: patent US11919901B2 (Syndax Pharmaceuticals, Inc., priority 2021, dated 2024)
Blank lines part the entries; values can stand above or below the compound they belong to.

Molecular target: Menin-MLL (Homo sapiens (Human), UniProt O00255)
Test: Determination of binding constants (Ki) to Menin-MLL (HTRF)
Conditions: HTRF, 0.25 nM H-FL-Menin, 3.2 nM FITC-MLL-4-43, 24 hr incubation; for Ki: read-out: Menin-MLL Ki HTRF Assay: Ki

Menin-MLL, sequence (O00255 whole entry): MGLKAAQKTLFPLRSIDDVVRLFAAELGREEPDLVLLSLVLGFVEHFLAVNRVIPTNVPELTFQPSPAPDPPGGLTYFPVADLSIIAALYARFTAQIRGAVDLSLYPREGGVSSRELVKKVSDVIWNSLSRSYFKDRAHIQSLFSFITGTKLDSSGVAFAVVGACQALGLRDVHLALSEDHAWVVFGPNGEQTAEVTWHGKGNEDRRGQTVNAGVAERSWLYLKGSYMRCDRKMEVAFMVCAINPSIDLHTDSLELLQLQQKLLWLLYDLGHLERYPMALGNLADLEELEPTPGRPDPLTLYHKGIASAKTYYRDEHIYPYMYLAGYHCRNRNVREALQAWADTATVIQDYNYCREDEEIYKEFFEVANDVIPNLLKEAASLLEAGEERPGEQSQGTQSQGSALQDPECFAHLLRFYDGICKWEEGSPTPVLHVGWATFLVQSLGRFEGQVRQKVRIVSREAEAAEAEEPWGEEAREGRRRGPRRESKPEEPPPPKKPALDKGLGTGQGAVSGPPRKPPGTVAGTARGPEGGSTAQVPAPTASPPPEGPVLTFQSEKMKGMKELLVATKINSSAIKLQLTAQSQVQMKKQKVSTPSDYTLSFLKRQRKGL

SMILES: CC(C)N(C(=O)c1cc(F)ccc1Oc1cncnc1N1CC2(CCN(C[C@@H]3CC[C@@H](N[S@](=N)(=O)c4ccccc4)CO3)CC2)C1)C(C)C (single isomer, unassigned) [Compound 230]
- Ki: < 1 nM

SMILES: CCS(=O)(=O)N[C@@H]1CC[C@@H](CN2CCC3(CC2)CN(c2ncncc2Oc2ccc(F)cc2C(=O)N(C(C)C)[C@H]2[C@@H]4COC[C@@H]42)C3)OC1 [Compound 253, N-((1R,5S,6r)-3-c)-2-((4-(7-(((2S,5R)-5-(ethylsulfonamido)tetrahydro-2H-pyran-2-yl)methyl)-2,7-diazaspiro[3.5]nonan-2-yl)pyrimidin-5-yl)oxy)-5-fluoro-N-isopropylbenzamide]
- Ki: < 1 nM

SMILES: CCS(=O)(=O)N[C@@H]1CC[C@@H](CN2CCC3(CC2)CN(c2ncnnc2Oc2ccc(F)cc2C(=O)N(C(C)C)C(C)C)C3)OC1 [Compound 195, 2-((5-(7-(((2S,5R)-5-(Ethylsulfonamido)tetrahydro-2H-pyran-2-yl)methyl)-2,7-diazaspiro[3.5]nonan-2-yl)-1,2,4-triazin-6-yl)oxy)-5-fluoro-N,N-diisopropylbenzamide]
- Ki: < 1 nM

SMILES: CCN(C)S(=O)(=O)N[C@@H]1CC[C@@H](CN2CCC3(CC2)CN(c2ncncc2Oc2ccc(F)cc2C(=O)N2[C@H](C)COC[C@H]2C)C3)OC1 [Compound 128, {[(3R,6S)-6-{[2-(5-{2-[(3R,5R)-3,5-Dimethylmorpholine-4-carbonyl]-4-fluorophenoxy}pyrimidin-4-yl)-2,7-diazaspiro[3.5]nonan-7-yl]methyl}oxan-3-yl]sulfamoyl}(ethyl)methylamine]
- Ki: < 1 nM

SMILES: CCN(C(=O)c1cc(F)ccc1Oc1cncnc1N1CC2(CCN(C[C@@H]3CC[C@@H](NS(=O)(=O)N4CC(F)(F)C4)CO3)CC2)C1)C(C)C [Compound 70, 2-((4-(7-(((2S,5R)-5-((3,3-Difluoroazetidine)-1-sulfonamido)tetrahydro-2H-pyran-2-yl)methyl)-2,7-diazaspiro[3.5]nonan-2-yl)pyrimidin-5-yl)oxy)-N-ethyl-5-fluoro-N-isopropylbenzamide]
- EC50: < 50 nM
- Ki: < 1 nM

SMILES: CC(C)N(C(=O)c1cc(F)ccc1Oc1cncnc1N1CC2(CCN(C[C@@H]3CC[C@@H](NC(=O)OC(C)(C)C)CO3)CC2)C1)C1CC1 [Compound 17, tert-butyl ((3R,6S)-6-((2-(5-(2-(cyclopropyl(isopropyl)carbamoyl)-4-fluorophenoxy)pyrimidin-4-yl)-2,7-diazaspiro[3.5]nonan-7-yl)methyl)tetrahydro-2H-pyran-3-yl)carbamate]
- EC50: < 50 nM
- Ki: < 1 nM

SMILES: CC(C)N(CC(F)(F)F)C(=O)c1cc(F)ccc1Oc1cncnc1N1CC2(CCN(C[C@@H]3CC[C@@H](NS(=O)(=O)N4CCOCC4)CO3)CC2)C1 [Compound 108, 5-Fluoro-N-isopropyl-2-((4-(7-(((2S,5R)-5-(morpholine-4-sulfonamido)tetrahydro-2H-pyran-2-yl)methyl)-2,7-diazaspiro[3.5]nonan-2-yl)pyrimidin-5-yl)oxy)-N-(2,2,2-trifluoroethyl)benzamide]
- EC50: < 50 nM
- Ki: < 1 nM

SMILES: C[C@@H]1COC[C@@H](C)N1C(=O)c1cc(F)ccc1Oc1cncnc1N1CC2(CCN(C[C@@H]3CC[C@@H](NS(=O)(=O)C4COC4)CO3)CC2)C1 [Compound 32]
- EC50: < 50 nM
- Ki: < 1 nM

SMILES: CCS(=O)(=O)N[C@@H]1CC[C@@H](CN2CCC3(CC2)CN(c2ncncc2Oc2ccc(F)cc2C(=O)N(C(C)C)C2CC4(COC4)C2)C3)OC1 [Compound 252, 2-((4-(7-(((2S,5R)-5-(Ethylsulfonamido)tetrahydro-2H-pyran-2-yl)methyl)-2,7-diazaspiro[3.5]nonan-2-yl)pyrimidin-5-yl)oxy)-5-fluoro-N-isopropyl-N-(2-oxaspiro[3.3]heptan-6-yl)benzamide]
- Ki: < 1 nM

- EC50: < 50 nM
SMILES: CCS(=O)(=O)N[C@@H]1CC[C@@H](CN2CCC3(CC2)CN(c2ncncc2Oc2ccc(F)cc2C(=O)N(c2ccccc2)c2ccccc2)C3)OC1 [Compound 261]

SMILES: CCn1cc(S(=O)(=O)N[C@@H]2CC[C@@H](CN3CCC4(CC3)CN(c3ncncc3Oc3ccc(F)cc3C(=O)N(CC(F)F)C(C)C)C4)OC2)cn1 [Compound 106, N-(2,2-Difluoroethyl)-2-((4-(7-(((2S,5R)-5-((1-ethyl-1H-pyrazole)-4-sulfonamido)tetrahydro-2H-pyran-2-yl)methyl)-2,7-diazaspiro[3.5]nonan-2-yl)pyrimidin-5-yl)oxy)-5-fluoro-N-isopropylbenzamide]
- Ki: < 1 nM

SMILES: C[C@@H]1COC[C@@H](C)N1C(=O)c1cc(F)ccc1Oc1cncnc1N1CC2(CCN(C[C@@H]3CC[C@@H](NS(=O)(=O)NC4CC4)CO3)CC2)C1 [Compound 159, N-[(3R,6S)-6-{[2-(5-{2-[(3R,5R)-3,5-Dimethylmorpholine-4-carbonyl]-4-fluorophenoxy}pyrimidin-4-yl)-2,7-diazaspiro[3.5]nonan-7-yl]methyl}oxan-3-yl](cyclopropylamino)sulfonamide]
- Ki: < 1 nM

SMILES: CCN(C(=O)c1cc(F)ccc1Oc1cncnc1N1CC2(CCN(C[C@@H]3CC[C@@H](NC(=O)NCC(F)F)CO3)CC2)C1)C(C)C [Compound 41, 2-((4-(7-(((2S,5R)-5-(3-(2,2-difluoroethyl)ureido)tetrahydro-2H-pyran-2-yl)methyl)-2,7-diazaspiro[3.5]nonan-2-yl)pyrimidin-5-yl)oxy)-N-ethyl-5-fluoro-N-isopropylbenzamide]
- EC50: 50 to 100 nM
- Ki: < 1 nM

SMILES: CCS(=O)(=O)N[C@@H]1CC[C@@H](CN2CCC3(CC2)CN(c2ncncc2Oc2ccc(F)cc2C(=O)N(CCC(F)F)C(C)C)C3)OC1 [Compound 242, N-(3,3-Difluoropropyl)-2-((4-(7-(((2S,5R)-5-(ethylsulfonamido)tetrahydro-2H-pyran-2-yl)methyl)-2,7-diazaspiro[3.5]nonan-2-yl)pyrimidin-5-yl)oxy)-5-fluoro-N-isopropylbenzamide]
- EC50: < 50 nM
- Ki: < 1 nM

SMILES: CN=S(=O)(N[C@@H]1CC[C@@H](CN2CCC3(CC2)CN(c2ncncc2Oc2ccc(F)cc2C(=O)N(C(C)C)C(C)C)C3)OC1)c1ccccc1 (stereo partly drawn) [Compound 232, 5-Fluoro-N,N-diisopropyl-2-((4-(7-(((2S,5R)-5-(N′-methylphenylsulfonoamidimidamido)tetrahydro-2H-pyran-2-yl)methyl)-2,7-diazaspiro[3.5]nonan-2-yl)pyrimidin-5-yl)oxy)benzamide]
- Ki: < 1 nM

SMILES: CCNC(=O)N[C@@H]1CC[C@@H](CN2CCC3(CC2)CN(c2ncncc2Oc2ccc(F)cc2C(=O)N(CC)C(C)C)C3)OC1 [Compound 39, N-ethyl-2-((4-(7-(((2S,5R)-5-(3-ethylureido)tetrahydro-2H-pyran-2-yl)methyl)-2,7-diazaspiro[3.5]nonan-2-yl)pyrimidin-5-yl)oxy)-5-fluoro-N-isopropylbenzamide]
- EC50: < 50 nM
- Ki: < 1 nM

SMILES: CCN(C(=O)c1cc(F)ccc1Oc1cncnc1N1CC2(CCN(C[C@@H]3CC[C@@H](NS(=O)(=O)C(C)C)CO3)CC2)C1)C(C)C [Compound 3, N-ethyl-5-fluoro-N-isopropyl-2-((4-(7-(((2S,5R)-5-((1-methylethyl)sulfonamido)tetrahydro-2H-pyran-2-yl)methyl)-2,7-diazaspiro[3.5]nonan-2-yl)pyrimidin-5-yl)oxy)benzamide]
- EC50: < 50 nM
- Ki: < 1 nM

SMILES: CC(C)N(C(=O)c1cc(F)ccc1Oc1cncnc1N1CC2(CCN(C[C@@H]3CC[C@@H](NS(=O)(=O)C(C)C)CO3)CC2)C1)C1CC1 [Compound 20, N-cyclopropyl-5-fluoro-N-isopropyl-2-((4-(7-(((2S,5R)-5-((1-methylethyl)sulfonamido)tetrahydro-2H-pyran-2-yl)methyl)-2,7-diazaspiro[3.5]nonan-2-yl)pyrimidin-5-yl)oxy)benzamide]
- EC50: < 50 nM
- Ki: < 1 nM

SMILES: CC(C)N(C(=O)c1cc(F)ccc1Oc1cncnc1N1CC2(CCN(C[C@@H]3CC[C@@H](NS(=O)(=O)c4ccc(=O)n(C)c4)CO3)CC2)C1)C(C)C [Compound 92, 5-Fluoro-N,N-diisopropyl-2-((4-(7-(((2S,5R)-5-((1-methyl-6-oxo-1,6-dihydropyridine)-3-sulfonamido)tetrahydro-2H-pyran-2-yl)methyl)-2,7-diazaspiro[3.5]nonan-2-yl)pyrimidin-5-yl)oxy)benzamide]
- Ki: < 1 nM

SMILES: CCN(C)S(=O)(=O)N[C@@H]1CC[C@@H](CN2CCC3(CC2)CN(c2ncncc2Oc2ccc(F)cc2C(=O)N(C(C)C)[C@@H]2CCOC2)C3)OC1 [Compound 170, 2-((4-(7-(((2S,5R)-5-((N-Ethyl-N-methylsulfamoyl)amino)tetrahydro-2H-pyran-2-yl)methyl)-2,7-diazaspiro[3.5]nonan-2-yl)pyrimidin-5-yl)oxy)-5-fluoro-N-isopropyl-N-((R)-tetrahydrofuran-3-yl)benzamide]
- Ki: < 1 nM

SMILES: CCS(=O)(=O)N[C@@H]1CC[C@@H](CN2CCC3(CC2)CN(c2ncncc2Oc2ccc(F)cc2C(=O)N(C[C@@H](O)CO)C(C)C)C3)OC1 [Compound 255, N-((R)-2,3-Dihydroxypropyl)-2-((4-(7-(((2S,5R)-5-(ethylsulfonamido)tetrahydro-2H-pyran-2-yl)methyl)-2,7-diazaspiro[3.5]nonan-2-yl)pyrimidin-5-yl)oxy)-5-fluoro-N-isopropylbenzamide]
- EC50: < 50 nM
- Ki: < 1 nM

- EC50: < 50 nM
SMILES: CCS(=O)(=O)N[C@@H]1CC[C@@H](CN2CCC3(CC2)CN(c2ncncc2Oc2ccc(F)cc2C(=O)N(C(C)C)C2CCOCC2)C3)OC1 [Compound 250, 2-((4-(7-(((2S,5R)-5-(Ethylsulfonamido)tetrahydro-2H-pyran-2-yl)methyl)-2,7-diazaspiro[3.5]nonan-2-yl)pyrimidin-5-yl)oxy)-5-fluoro-N-isopropyl-N-(tetrahydro-2H-pyran-4-yl)benzamide]

SMILES: CC(C)N(CC(F)F)C(=O)c1cc(F)ccc1Oc1cncnc1N1CC2(CCN(C[C@@H]3CC[C@@H](NS(=O)(=O)N4CC(OCc5ccccc5)C4)CO3)CC2)C1 [Compound 236, 2-((4-(7-(((2S,5R)-5-((3-(Benzyloxy)azetidine)-1-sulfonamido)tetrahydro-2H-pyran-2-yl)methyl)-2,7-diazaspiro[3.5]nonan-2-yl)pyrimidin-5-yl)oxy)-N-(2,2-difluoroethyl)-5-fluoro-N-isopropylbenzamide]
- Ki: < 1 nM
